According to ChEMBL document CHEMBL1134815, “3,3a-Dihydropyrano[4,3,2-de]quinazolin-2(1H)-ones are potent non-nucleoside reverse transcriptase inhibitors” (Bioorg Med Chem Lett, 2001):
pIC50: −log10 of the molar value.

What follows are molecules tested on HIV-1 reverse transcriptase (Human immunodeficiency virus 1) (assay: Inhibitory concentration against wild-type virus K103N/[…] and HIV-1 RT double mutant in whole cell antiviral assay).

| Compound | IC90 [nM] |
| --- | --- |
| O=C1Nc2ccc(Cl)c3c2C(C(F)(F)F)(C=C(c2ccccc2)O3)N1 (stereo unspecified) | 1660 |
| O=C1Nc2ccc(Cl)cc2[C@@](C#CC2CC2)(C(F)(F)F)N1 | 1100 |
| COc1c(Cl)ccc2c1C(C#Cc1cccnc1)(C(F)(F)F)NC(=O)N2 (stereo unspecified) | 2540 |
| O=C1Nc2ccc(Cl)c(O)c2C(C#Cc2ccccc2)(C(F)(F)F)N1 (stereo unspecified) | 1940 |
| O=C1Nc2ccc(Cl)c3c2C(C(F)(F)F)(C=C(c2cccnc2)O3)N1 (stereo unspecified) | 897 |
| O=C1Nc2ccc(Cl)c(O)c2C(C#CC2CC2)(C(F)(F)F)N1 (stereo unspecified) | 3020 |
| COc1c(Cl)ccc2c1C(C#Cc1ccccc1)(C(F)(F)F)NC(=O)N2 (stereo unspecified) | 5520 |

What follows are molecules tested on Human immunodeficiency virus type 1 reverse transcriptase (Human immunodeficiency virus 1), Q72547 [K103N] (assay: not given).

| Compound | IC90 [nM] |
| --- | --- |
| COc1c(Cl)ccc2c1C(C#CC1CC1)(C(F)(F)F)NC(=O)N2 (stereo unspecified) | 7.5 |
| O=C1Nc2ccc(Cl)cc2C(C#Cc2ccccc2)(C(F)(F)F)N1 (stereo unspecified) | 7 |
| Fc1ccc2c3c1S/C(=C\c1cccnc1)C3(C(F)(F)F)NC(S)=N2 (stereo unspecified) | 84 |
| O=C1Nc2ccc(Cl)c3c2C(C(F)(F)F)(C=C(c2ccccc2)O3)N1 (stereo unspecified) | 46 |
| COc1c(Cl)ccc2c1C(C#Cc1cccnc1)(C(F)(F)F)NC(=O)N2 (stereo unspecified) | 147 |
| O=C1Nc2ccc(Cl)c(O)c2C(C#Cc2ccccc2)(C(F)(F)F)N1 (stereo unspecified) | 30 |
| O=C1Nc2ccc(Cl)c3c2C(C(F)(F)F)(C=C(c2cccnc2)O3)N1 (stereo unspecified) | 76 |
| O=C1Nc2ccc(Cl)c3c2C(C(F)(F)F)(C=C(C2CC2)O3)N1 (stereo unspecified) | 76 |
| O=C1Nc2ccc(Cl)c(O)c2C(C#CC2CC2)(C(F)(F)F)N1 (stereo unspecified) | 28 |
| COc1c(Cl)ccc2c1C(C#Cc1ccccc1)(C(F)(F)F)NC(=O)N2 (stereo unspecified) | 113 |

These molecules were tested on HIV-1 reverse transcriptase (Human immunodeficiency virus 1) (assay: Inhibitory concentration against wild-type virus K103N mutant in a whole cell antiviral assay).

| Compound | IC90 [nM] |
| --- | --- |
| O=C1Nc2ccc(Cl)cc2[C@@](/C=C/C2CC2)(C(F)(F)F)N1 | 27 |

These molecules were tested on HIV-1 reverse transcriptase (Human immunodeficiency virus 1) (assay: Inhibitory concentration against wild-type virus K103N/[…] and HIVdouble mutant in a whole cell antiviral assay).

| Compound | IC90 [nM] |
| --- | --- |
| O=C1Nc2ccc(Cl)cc2[C@@](/C=C/C2CC2)(C(F)(F)F)N1 | 1690 |

The molecules below were run against Human immunodeficiency virus type 1 reverse transcriptase (Human immunodeficiency virus 1, UniProt Q72547) (assay: Tested for inhibitory concentration against HIV-1 non-nucleoside reverse transcriptase).

| Compound | pIC50 |
| --- | --- |
| COc1c(Cl)ccc2c1C(C#CC1CC1)(C(F)(F)F)NC(=O)N2 (stereo unspecified) | 7.15 |
| O=C1Nc2ccc(Cl)c3c2C(C(F)(F)F)(C=C(c2ccccc2)O3)N1 (stereo unspecified) | 6.61 |
| COc1c(Cl)ccc2c1C(C#Cc1cccnc1)(C(F)(F)F)NC(=O)N2 (stereo unspecified) | 6.86 |
| O=C1Nc2ccc(Cl)c(O)c2C(C#Cc2ccccc2)(C(F)(F)F)N1 (stereo unspecified) | 6.76 |
| O=C1Nc2ccc(Cl)c3c2C(C(F)(F)F)(C=C(c2cccnc2)O3)N1 (stereo unspecified) | 6.91 |
| O=C1Nc2ccc(Cl)c3c2C(C(F)(F)F)(C=C(C2CC2)O3)N1 (stereo unspecified) | 7.05 |
| O=C1Nc2ccc(Cl)c(O)c2C(C#CC2CC2)(C(F)(F)F)N1 (stereo unspecified) | 7.27 |
| COc1c(Cl)ccc2c1C(C#Cc1ccccc1)(C(F)(F)F)NC(=O)N2 (stereo unspecified) | 6.84 |

What follows are molecules tested against Human immunodeficiency virus type 1 reverse transcriptase (Human immunodeficiency virus 1) (UniProt Q72547) (assay: not given).

| Compound | IC90 [nM] |
| --- | --- |
| COc1c(Cl)ccc2c1C(C#CC1CC1)(C(F)(F)F)NC(=O)N2 (stereo unspecified) | 3.5 |
| Fc1ccc2c3c1S/C(=C\c1cccnc1)C3(C(F)(F)F)NC(S)=N2 (stereo unspecified) | 7 |
| O=C1Nc2ccc(Cl)c3c2C(C(F)(F)F)(C=C(c2ccccc2)O3)N1 (stereo unspecified) | 8.2 |
| COc1c(Cl)ccc2c1C(C#Cc1cccnc1)(C(F)(F)F)NC(=O)N2 (stereo unspecified) | 7.1 |
| O=C1Nc2ccc(Cl)c(O)c2C(C#Cc2ccccc2)(C(F)(F)F)N1 (stereo unspecified) | 6.8 |
| O=C1Nc2ccc(Cl)c3c2C(C(F)(F)F)(C=C(c2cccnc2)O3)N1 (stereo unspecified) | 4.6 |
| O=C1Nc2ccc(Cl)c3c2C(C(F)(F)F)(C=C(C2CC2)O3)N1 (stereo unspecified) | 3.6 |
| O=C1Nc2ccc(Cl)c(O)c2C(C#CC2CC2)(C(F)(F)F)N1 (stereo unspecified) | 3.6 |
| COc1c(Cl)ccc2c1C(C#Cc1ccccc1)(C(F)(F)F)NC(=O)N2 (stereo unspecified) | 7.9 |
